Laboratory results taken from ChEMBL document CHEMBL4011659, “Combining Elements from Two Antagonists of Formyl Peptide Receptor 2 Generates More Potent Peptidomimetic Antagonists” (J Med Chem, 2017).
The source made the active and inactive calls. The rule behind the calls is not given here. Peptide text beside a SMILES is read from it. * marks the point of attachment. RhodamineB = CCN(CC)c1ccc2c(-c3ccccc3C(=O)*)c3ccc(=[N+](CC)CC)cc-3oc2c1

Experiments:
[1] = biological target: T1, N-formyl peptide receptor 2 (Homo sapiens, UniProt P25090); test: Antagonist activity at FPR2 in human peripheral blood polymorphonuclear neutrophils assessed as inhibition of WKYMVM-peptide induced ROS production preincubated for 5 mins followed WKYMVM-peptide stimulation by isoluminol/HRP-based chemiluminescence assay
T1 sequence (P25090 whole entry): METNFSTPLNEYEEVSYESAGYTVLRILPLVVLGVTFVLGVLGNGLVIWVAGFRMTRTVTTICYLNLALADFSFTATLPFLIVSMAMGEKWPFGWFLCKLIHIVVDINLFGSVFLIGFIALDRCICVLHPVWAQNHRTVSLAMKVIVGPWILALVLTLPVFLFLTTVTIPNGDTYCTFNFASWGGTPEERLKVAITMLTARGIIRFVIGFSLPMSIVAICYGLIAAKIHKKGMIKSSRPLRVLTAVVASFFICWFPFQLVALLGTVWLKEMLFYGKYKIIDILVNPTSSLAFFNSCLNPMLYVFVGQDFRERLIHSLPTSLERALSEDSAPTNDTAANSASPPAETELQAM

Neutrophil = test: Inhibition of PMA-induced superoxide production in human peripheral blood polymorphonuclear neutrophils at 500 nM preincubated for 5 mins followed PMA stimulation by isoluminol/HRP-based chemiluminescence assay; format: functional, cell-based
[2] = biological target: T2, fMet-Leu-Phe receptor (Homo sapiens) (UniProt P21462); test: Antagonist activity at FPR1 in human peripheral blood polymorphonuclear neutrophils assessed as inhibition of fMLF-induced ROS production at <500 nM preincubated for 5 mins followed fMLF stimulation by isoluminol/HRP-based chemiluminescence assay
T2 sequence (whole entry): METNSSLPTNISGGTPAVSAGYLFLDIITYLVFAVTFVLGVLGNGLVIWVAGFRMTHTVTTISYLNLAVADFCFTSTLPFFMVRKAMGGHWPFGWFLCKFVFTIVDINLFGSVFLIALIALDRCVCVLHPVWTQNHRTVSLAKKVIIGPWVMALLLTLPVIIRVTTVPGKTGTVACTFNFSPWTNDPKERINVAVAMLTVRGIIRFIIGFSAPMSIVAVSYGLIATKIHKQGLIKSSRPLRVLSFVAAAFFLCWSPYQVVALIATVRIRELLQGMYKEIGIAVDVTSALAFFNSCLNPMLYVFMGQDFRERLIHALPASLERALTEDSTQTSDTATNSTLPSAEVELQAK

[3] = biological target: T3, N-formyl peptide receptor 2 (Homo sapiens) (UniProt P25090); test: Antagonist activity at FPR2 in human peripheral blood polymorphonuclear neutrophils assessed as inhibition of WKYMVM-peptide induced ROS production at <500 nM preincubated for 5 mins followed WKYMVM-peptide stimulation by isoluminol/HRP-based chemiluminescence assay
T3 sequence (whole entry): T1 sequence (P25090 whole entry)

[4] = biological target: T1, N-formyl peptide receptor 2; test: Antagonist activity at FPR2 in human peripheral blood polymorphonuclear neutrophils assessed as inhibition of WKYMVM-peptide induced ROS production preincubated for 5 mins followed WKYMVM-peptide stimulation measured up to 20 mins by isoluminol-based chemiluminescence assay
[5] = biological target: T2, fMet-Leu-Phe receptor (Homo sapiens); test: Antagonist activity at FPR1 in human peripheral blood polymorphonuclear neutrophils assessed as inhibition of fMLF-induced ROS production at >= 1 uM preincubated for 5 mins followed by fMLF stimulation by isoluminol/HRP-based chemiluminescence assay

SMILES | IC50 [1] [nM] | inhibition [2] | further results
CCN(CC)c1ccc2c(-c3ccccc3C(=O)N[C@@H](CCCCN)C(=O)N(CCC(=O)N[C@@H](CCCCN)C(=O)N(CCC(=O)N[C@@H](CCCCN)C(=O)N(CCC(=O)N[C@@H](CCCCN)C(=O)N(CCC(=O)N[C@@H](CCCCN)C(=O)N(CCC(=O)N[C@@H](CCCCN)C(=O)N(CCC(N)=O)Cc3ccc(F)cc3)Cc3ccc(F)cc3)Cc3ccc(F)cc3)Cc3ccc(F)cc3)Cc3ccc(F)cc3)Cc3ccc(F)cc3)c3ccc(=[N+](CC)CC)cc-3oc2c1 | 10 | inactive | inhibition (Neutrophil): Active
CCN(CC)c1ccc2c(-c3ccccc3C(=O)N[C@@H](CCCCN)C(=O)N(CCC(N)=O)Cc3ccccc3)c3ccc(=[N+](CC)CC)cc-3oc2c1 | 759 | inactive | 
CCN(CC)c1ccc2c(-c3ccccc3C(=O)N[C@H](CCC(N)=O)C(=O)N[C@H](CCCNC(=N)N)C(=O)N[C@H](CC(C)C)C(=O)N[C@H](Cc3ccccc3)C(=O)N[C@H](CCC(N)=O)C(=O)N[C@@H](C(=O)N[C@H](CCCCN)C(=O)NCC(=O)N[C@H](CCCNC(=N)N)C(=O)N[C@H](CCCNC(=N)N)C(N)=O)C(C)C)c3ccc(=[N+](CC)CC)cc-3oc2c1 |  | inactive | inhibition [3]: inactive
CCN(CC)c1ccc2c(-c3ccccc3C(=O)N[C@@H](CCCCN)C(=O)N(CCC(=O)N[C@@H](CCCCN)C(=O)N(CCC(=O)N[C@@H](CCCCN)C(=O)N(CCC(=O)N[C@@H](CCCCN)C(=O)N(CCC(=O)N[C@@H](CCCCN)C(=O)N(CCC(=O)N[C@@H](CCCCN)C(=O)N(CCC(=O)N[C@@H](CCCCN)C(=O)N(CCC(N)=O)Cc3ccccc3)Cc3ccccc3)Cc3ccccc3)Cc3ccccc3)Cc3ccccc3)Cc3ccccc3)Cc3ccccc3)c3ccc(=[N+](CC)CC)cc-3oc2c1 | 35 | inactive | 
CCCCCCCCCCCCCCCC(=O)N[C@@H](CCCCN)C(=O)N(CCC(=O)N[C@@H](CCCCN)C(=O)N(CCC(=O)N[C@@H](CCCCN)C(=O)N(CCC(=O)N[C@@H](CCCCN)C(=O)N(CCC(=O)N[C@@H](CCCCN)C(=O)N(CCC(=O)N[C@@H](CCCCN)C(=O)N(CCC(N)=O)[C@@H](C)c1ccccc1)[C@@H](C)c1ccccc1)[C@@H](C)c1ccccc1)[C@@H](C)c1ccccc1)[C@@H](C)c1ccccc1)[C@@H](C)c1ccccc1 |  | inactive | IC50 [4]: 41 nM
CCN(CC)c1ccc2c(-c3ccccc3C(=O)N[C@@H](CCCCN)C(=O)N(CCC(=O)N[C@@H](CCCCN)C(=O)N(CCC(=O)N[C@@H](CCCCN)C(=O)N(CCC(=O)N[C@@H](CCCCN)C(=O)N(CCC(=O)N[C@@H](CCCCN)C(=O)N(CCC(=O)N[C@@H](CCCCN)C(=O)N(CCC(N)=O)Cc3ccc(C)cc3)Cc3ccc(C)cc3)Cc3ccc(C)cc3)Cc3ccc(C)cc3)Cc3ccc(C)cc3)Cc3ccc(C)cc3)c3ccc(=[N+](CC)CC)cc-3oc2c1 | 24 | inactive | 
CCN(CC)c1ccc2c(-c3ccccc3C(=O)N[C@@H](CCCCN)C(=O)N(CCC(=O)N[C@@H](CCCCN)C(=O)N(CCC(N)=O)Cc3ccccc3)Cc3ccccc3)c3ccc(=[N+](CC)CC)cc-3oc2c1 | 273 | inactive | 
CCN(CC)c1ccc2c(-c3ccccc3C(=O)N[C@@H](CCCCN)C(=O)N(CCC(=O)N[C@@H](CCCCN)C(=O)N(CCC(=O)N[C@@H](CCCCN)C(=O)N(CCC(=O)N[C@@H](CCCCN)C(=O)N(CCC(=O)N[C@@H](CCCCN)C(=O)N(CCC(=O)N[C@@H](CCCCN)C(=O)N(CCC(N)=O)[C@@H](C)c3ccccc3)[C@@H](C)c3ccccc3)[C@@H](C)c3ccccc3)[C@@H](C)c3ccccc3)[C@@H](C)c3ccccc3)[C@@H](C)c3ccccc3)c3ccc(=[N+](CC)CC)cc-3oc2c1 | 34 | inactive | 
CCN(CC)c1ccc2c(-c3ccccc3C(=O)N[C@@H](CCC(N)=O)C(=O)N[C@@H](CCCNC(=N)N)C(=O)N[C@@H](CC(C)C)C(=O)N[C@@H](Cc3ccccc3)C(=O)N[C@@H](CCC(N)=O)C(=O)NC(C(=O)N[C@@H](CCCCN)C(=O)NCC(=O)N[C@@H](CCCNC(=N)N)C(=O)N[C@@H](CCCNC(=N)N)C(=O)O)C(C)C)c3ccc(=[N+](CC)CC)cc-3oc2c1 (single isomer, unassigned) |  | inactive | IC50 [4]: 60 nM
CCCCCCCCCCCCCCCC(=O)N[C@H](CCC(N)=O)C(=O)N[C@H](CCCNC(=N)N)C(=O)N[C@H](CC(C)C)C(=O)N[C@H](Cc1ccccc1)C(=O)N[C@H](CCC(N)=O)C(=O)N[C@@H](C(=O)N[C@H](CCCCN)C(=O)NCC(=O)N[C@H](CCCNC(=N)N)C(=O)N[C@H](CCCNC(=N)N)C(N)=O)C(C)C | 1120 |  | inhibition [5]: Active
CCN(CC)c1ccc2c(-c3ccccc3C(=O)N[C@@H](CCCCN)C(=O)N(CCC(=O)N[C@@H](CCCCN)C(=O)N(CCC(=O)N[C@@H](CCCCN)C(=O)N(CCC(=O)N[C@@H](CCCCN)C(=O)N(CCC(=O)N[C@@H](CCCCN)C(=O)N(CCC(=O)N[C@@H](CCCCN)C(=O)N(CCC(N)=O)Cc3cc(F)c(F)c(F)c3)Cc3cc(F)c(F)c(F)c3)Cc3cc(F)c(F)c(F)c3)Cc3cc(F)c(F)c(F)c3)Cc3cc(F)c(F)c(F)c3)Cc3cc(F)c(F)c(F)c3)c3ccc(=[N+](CC)CC)cc-3oc2c1 | 53 | inactive | 
CCN(CC)c1ccc2c(-c3ccccc3C(=O)N[C@@H](CCCCN)C(=O)N[C@@H](Cc3ccccc3)C(=O)N[C@@H](CCCCN)C(=O)N[C@@H](Cc3ccccc3)C(=O)N[C@@H](CCCCN)C(=O)N[C@@H](Cc3ccccc3)C(=O)N[C@@H](CCCCN)C(=O)N[C@@H](Cc3ccccc3)C(=O)N[C@@H](CCCCN)C(=O)N[C@@H](Cc3ccccc3)C(=O)N[C@@H](CCCCN)C(=O)N[C@@H](Cc3ccccc3)C(N)=O)c3ccc(=[N+](CC)CC)cc-3oc2c1 (RhodamineB-KFKFKFKFKFKF-NH2) |  | inactive | inhibition [3]: inactive
CCN(CC)c1ccc2c(-c3ccccc3C(=O)N[C@@H](CCCCN)C(=O)N(CCC(=O)N[C@@H](CCCCN)C(=O)N(CCC(=O)N[C@@H](CCCCN)C(=O)N(CCC(=O)N[C@@H](CCCCN)C(=O)N(CCC(=O)N[C@@H](CCCCN)C(=O)N(CCC(=O)N[C@@H](CCCCN)C(=O)N(CCC(=O)N[C@@H](CCCCN)C(=O)N(CCC(=O)N[C@@H](CCCCN)C(=O)N(CCC(N)=O)Cc3ccccc3)Cc3ccccc3)Cc3ccccc3)Cc3ccccc3)Cc3ccccc3)Cc3ccccc3)Cc3ccccc3)Cc3ccccc3)c3ccc(=[N+](CC)CC)cc-3oc2c1 | 41 | inactive | 
CCCCCCCCCCCCCCCC(=O)N[C@@H](CCC(N)=O)C(=O)N[C@@H](CCCNC(=N)N)C(=O)N[C@@H](CC(C)C)C(=O)N[C@@H](Cc1ccccc1)C(=O)N[C@@H](CCC(N)=O)C(=O)NC(C(=O)N[C@@H](CCCCN)C(=O)NCC(=O)N[C@@H](CCCNC(=N)N)C(=O)N[C@@H](CCCNC(=N)N)C(N)=O)C(C)C (single isomer, unassigned) | 900 |  | inhibition [5]: Active
CCN(CC)c1ccc2c(-c3ccccc3C(=O)N[C@@H](CCCCN)C(=O)N(CCC(=O)N[C@@H](CCCCN)C(=O)N(CCC(=O)N[C@@H](CCCCN)C(=O)N(CCC(N)=O)Cc3ccccc3)Cc3ccccc3)Cc3ccccc3)c3ccc(=[N+](CC)CC)cc-3oc2c1 | 28 | inactive | 
CCN(CC)c1ccc2c(-c3ccccc3C(=O)N[C@@H](CCCCN)C(=O)N(CCC(=O)N[C@@H](CCCCN)C(=O)N(CCC(=O)N[C@@H](CCCCN)C(=O)N(CCC(=O)N[C@@H](CCCCN)C(=O)N(CCC(N)=O)Cc3ccccc3)Cc3ccccc3)Cc3ccccc3)Cc3ccccc3)c3ccc(=[N+](CC)CC)cc-3oc2c1 | 13 | inactive | 
CCN(CC)c1ccc2c(-c3ccccc3C(=O)N[C@@H](CCCCN)C(=O)N(CCC(=O)N[C@@H](CCCCN)C(=O)N(CCC(=O)N[C@@H](CCCCN)C(=O)N(CCC(=O)N[C@@H](CCCCN)C(=O)N(CCC(=O)N[C@@H](CCCCN)C(=O)N(CCC(N)=O)Cc3ccccc3)Cc3ccccc3)Cc3ccccc3)Cc3ccccc3)Cc3ccccc3)c3ccc(=[N+](CC)CC)cc-3oc2c1 | 18 | inactive | 
CCN(CC)c1ccc2c(-c3ccccc3C(=O)N[C@@H](CCCCN)C(=O)N(CCC(=O)N[C@@H](CCCCN)C(=O)N(CCC(=O)N[C@@H](CCCCN)C(=O)N(CCC(=O)N[C@@H](CCCCN)C(=O)N(CCC(=O)N[C@@H](CCCCN)C(=O)N(CCC(=O)N[C@@H](CCCCN)C(=O)N(CCC(N)=O)[C@H](C)c3ccccc3)[C@H](C)c3ccccc3)[C@H](C)c3ccccc3)[C@H](C)c3ccccc3)[C@H](C)c3ccccc3)[C@H](C)c3ccccc3)c3ccc(=[N+](CC)CC)cc-3oc2c1 | 44 | inactive | 
